Measurements taken from patent publication US11578081B1, “Crystal form as inhibitor of ACC1 and ACC2, and preparation method therefor and use thereof” (ZHANGZHOU PIEN TZE HUANG PHARMACEUTICAL CO., LTD., priority 2019, dated 2023).

Assays:
[1] = Physical stability test of crystal form A as a solid under temperature, humidity and light (XRPD); assay type: physicochemical; settings: 60° C. and 92.5% RH for 5 and 10 days; ICH visible and UV light; 60° C./75% RH 1 and 2 months; 40° C./75% RH 1, 2 and 3 months
Experimental: In order to evaluate the solid stability of a crystal form A, the influencing factors (high temperature, high humidity and light), accelerated stability conditions and intermediate stability conditions were investigated for the crystal form A.
The crystal form A was placed under high temperature (60° C., closed dish) and high humidity (room temperature, 92.5% RH (relative humidity), wrapped in a parafilm with 5 to 10 small holes) for 5 days and 10 days. According to ICH conditions (visible illuminance reached 1.2E06 Lux·hrs, and ultraviolet illuminance reached 200 W·hrs/m^2), the crystal form A was placed under visible light and ultraviolet light (the shading control group was wrapped in tin foil) in closed dish, and meanwhile, the crystal form A was placed under accelerated stability conditions (60° C./75% RH, wrapped in a parafilm with 5 to 10 small holes) for 1 and 2 months, and under intermediate stability conditions (40° C./75% RH, wrapped in a parafilm with 5 to 10 small holes) for 1, 2 and 3 months. The samples after placement were characterized by XRPD to detect the change of the crystal form.

[2] = biological target: human acetyl-CoA carboxylase 2 (hACC2) (Homo sapiens, UniProt O00763); test: In vitro ACC enzyme inhibition (ADP fluorescence), hACC2; assay type: biochemical; settings: pre-incubated 15 minutes, 1 hour at room temperature
Sequence of human acetyl-CoA carboxylase 2 (hACC2) (O00763 whole entry): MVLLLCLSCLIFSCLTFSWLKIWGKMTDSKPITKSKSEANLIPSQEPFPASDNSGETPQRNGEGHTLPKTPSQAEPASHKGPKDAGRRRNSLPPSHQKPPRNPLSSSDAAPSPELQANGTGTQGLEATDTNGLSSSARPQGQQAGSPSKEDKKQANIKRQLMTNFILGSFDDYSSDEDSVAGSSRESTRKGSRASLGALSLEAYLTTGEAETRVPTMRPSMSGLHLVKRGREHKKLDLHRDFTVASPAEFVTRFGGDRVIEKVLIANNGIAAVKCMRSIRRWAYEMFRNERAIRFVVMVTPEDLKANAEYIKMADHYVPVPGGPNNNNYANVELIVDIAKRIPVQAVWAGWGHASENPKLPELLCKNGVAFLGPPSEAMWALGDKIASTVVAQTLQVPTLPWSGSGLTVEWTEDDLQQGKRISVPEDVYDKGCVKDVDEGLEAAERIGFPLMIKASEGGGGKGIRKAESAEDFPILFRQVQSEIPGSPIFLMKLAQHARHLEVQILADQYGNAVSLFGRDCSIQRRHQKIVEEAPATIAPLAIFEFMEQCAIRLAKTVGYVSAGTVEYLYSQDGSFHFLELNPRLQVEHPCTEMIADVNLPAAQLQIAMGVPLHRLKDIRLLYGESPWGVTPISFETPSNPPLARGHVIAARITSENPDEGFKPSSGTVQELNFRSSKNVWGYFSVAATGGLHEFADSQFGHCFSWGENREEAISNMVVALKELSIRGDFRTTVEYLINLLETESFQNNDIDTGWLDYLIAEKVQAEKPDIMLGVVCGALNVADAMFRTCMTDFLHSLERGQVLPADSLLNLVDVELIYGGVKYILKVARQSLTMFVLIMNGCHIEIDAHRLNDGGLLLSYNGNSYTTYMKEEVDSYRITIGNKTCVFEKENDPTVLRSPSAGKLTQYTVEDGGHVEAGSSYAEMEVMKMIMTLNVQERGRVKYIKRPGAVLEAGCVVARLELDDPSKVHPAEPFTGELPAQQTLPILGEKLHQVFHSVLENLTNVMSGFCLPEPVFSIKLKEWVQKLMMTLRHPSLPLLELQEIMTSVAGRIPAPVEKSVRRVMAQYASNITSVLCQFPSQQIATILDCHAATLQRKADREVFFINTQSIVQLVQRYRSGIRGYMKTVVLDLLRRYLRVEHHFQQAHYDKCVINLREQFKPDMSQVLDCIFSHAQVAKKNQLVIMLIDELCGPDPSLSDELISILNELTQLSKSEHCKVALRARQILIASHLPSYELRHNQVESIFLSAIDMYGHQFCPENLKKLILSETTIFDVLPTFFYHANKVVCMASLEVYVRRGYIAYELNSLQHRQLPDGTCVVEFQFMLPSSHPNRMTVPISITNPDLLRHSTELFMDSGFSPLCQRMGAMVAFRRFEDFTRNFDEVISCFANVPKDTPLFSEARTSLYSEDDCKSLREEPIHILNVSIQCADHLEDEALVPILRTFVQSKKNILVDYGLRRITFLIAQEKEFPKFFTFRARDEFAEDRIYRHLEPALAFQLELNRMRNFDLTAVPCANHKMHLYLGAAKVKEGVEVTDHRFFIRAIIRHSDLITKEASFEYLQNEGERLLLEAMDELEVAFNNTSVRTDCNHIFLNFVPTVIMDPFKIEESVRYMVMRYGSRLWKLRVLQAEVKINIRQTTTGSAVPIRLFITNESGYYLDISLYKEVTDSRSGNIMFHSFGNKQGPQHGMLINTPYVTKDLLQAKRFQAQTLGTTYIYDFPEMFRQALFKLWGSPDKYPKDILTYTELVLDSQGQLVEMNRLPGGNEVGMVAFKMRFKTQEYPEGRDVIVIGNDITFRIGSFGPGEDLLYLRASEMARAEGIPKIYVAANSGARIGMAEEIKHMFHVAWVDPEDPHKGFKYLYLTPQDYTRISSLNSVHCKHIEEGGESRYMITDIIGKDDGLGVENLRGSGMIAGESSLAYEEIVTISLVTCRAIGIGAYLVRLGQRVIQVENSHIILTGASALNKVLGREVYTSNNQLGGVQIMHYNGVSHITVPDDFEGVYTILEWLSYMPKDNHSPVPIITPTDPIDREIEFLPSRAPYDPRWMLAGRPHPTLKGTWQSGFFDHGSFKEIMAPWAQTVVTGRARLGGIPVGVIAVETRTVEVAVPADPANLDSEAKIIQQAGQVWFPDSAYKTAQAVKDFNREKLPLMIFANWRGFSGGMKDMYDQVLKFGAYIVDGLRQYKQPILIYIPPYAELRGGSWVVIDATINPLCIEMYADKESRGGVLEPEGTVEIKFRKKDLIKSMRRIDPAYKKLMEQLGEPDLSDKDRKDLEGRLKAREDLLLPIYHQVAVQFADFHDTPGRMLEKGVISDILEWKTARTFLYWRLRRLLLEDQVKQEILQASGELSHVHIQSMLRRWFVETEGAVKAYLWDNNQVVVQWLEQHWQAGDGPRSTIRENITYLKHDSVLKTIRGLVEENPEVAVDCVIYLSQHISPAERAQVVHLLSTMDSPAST
Experimental: (§1) To evaluate the ability of a test compound to inhibit acetyl-CoA carboxylase (ACC) by determining the IC50 value.
(§2) 1. Proteins: human acetyl-CoA carboxylase 1 (hACC1) and human acetyl-CoA carboxylase 2 (hACC2).
(§3) 3. Cofactors: acetyl-CoA and ATP (adenosine triphosphate)
(§4) 4. Activator: potassium citrate
(§5) 1. One-fold enzyme/substrate/cofactor was added to microwells of a well plate.
(§6) 2. According to an Acoustic technique, a solution of a compound in DMSO was added to the enzyme mixture, and the resulting mixture was pre-incubated for 15 minutes.
(§7) 3. ATP was added thereto to initiate the reaction, and the mixture was shaken uniformly.
(§8) 4. The mixture was incubated for 1 hour at room temperature.
(§9) 5. The reaction was quenched, and then incubated for additional 40 minutes.
(§10) 6. A detection reagent was added and the resulting mixture was incubated for 30 minutes.
(§11) 7. Fluorescence was tested.
(§12) 8. Data analysis was performed: based on the standard curve of ADP, the fluorescence signal was converted to the ADP product concentration and the enzyme activity was calculated. The curve was fitted using Graphpad Prism software to obtain the IC50 value.

[3] = Pharmacokinetic evaluation in C57BL/6 mice; assay type: in vivo; settings: mouse, plasma, male C57BL/6 mice
Experimental: To test the pharmacokinetics of the compound in C57BL/6 mice Experimental materials:
C57BL/6 mice (male, 18 to 30 g, 7 to 9 weeks old, Shanghai Lingchang Biotechnology Co., Ltd.)
A clear solution of a test compound (0.5 mg/ml, 10% DMSO, 10% polyethylene glycol stearate, and 80% water) was injected via tail veins into 4 male C57BL/6 mice (overnight fasting, 7 to 9 weeks old), at a dose of 2.0 mg/kg. A suspension of the test compound or the clear solution thereof (1 mg/ml, 10% PEG400, 90% (0.5% methylcellulose+0.2% Tween 80)) was administered by gavage to 4 male C57BL/6 mice (overnight fasting, 7 to 9 weeks old), at a dose of 10 mg/kg.
Two mice were set in a group and subjected to blood sampling alternatively, with 4 to 5 blood sampling time points per mouse. At 0.0833 h (IV group only), 0.25 h, 0.5 h, 1.0 h, 2.0 h, 4.0 h, 6.0 h, 8.0 h, and 24 h after the mice were administered intravenously or by gavage, about 30 μL of blood was collected by saphenous vein puncture and placed in an anticoagulation tube supplemented with EDTA-K2, and the plasma was separated by centrifugation. The LC-MS/MS method was used to determine the blood drug concentration, and the WinNonlin™ Version 6.3 (Pharsight, Mountain View, Calif.) pharmacokinetic software was used to calculate the relevant pharmacokinetic parameters by the non-compartmental model linear logarithmic trapezoidal method.

[4] = biological target: human acetyl-CoA carboxylase 1 (hACC1) (Homo sapiens, UniProt Q13085); test: In vitro ACC enzyme inhibition (ADP fluorescence), hACC1; assay type: biochemical; settings: pre-incubated 15 minutes, 1 hour at room temperature
Experimental: as §1, §2, §3, §4, §5, §6, §7, §8, §9, §10, §11, §12

[5] = tested on: HFD+CCl4-induced NASH mouse model; test: In vivo pharmacodynamic study in HFD+CCl4-induced NASH mouse model; settings: HFD+CCl4 mice; 0.5, 1, 3 mg/kg by gavage QD day 0 to day 27; reference I-181 3 mg/kg
From the text: To study the effect of a compound on improving NASH and liver fibrosis in an HFD+CCl4 mouse model, with I-181 as a reference compound.
I-181 is an acetyl-CoA carboxylase inhibitor and is currently undergoing a phase II clinical study on non-alcoholic fatty liver disease (NAFLD). The HFD+CCl4 mouse model used in this study is an animal model that simulates human non-alcoholic fatty liver disease evolving into NASH. High-fat diet leads to fat accumulation and steatosis in liver cells; CCl4 (intraperitoneal injection, twice a week) simulates the “second hit” of liver injury.
The modeling for this experiment included two steps: high-fat diet feeding and CCl4 induction. Firstly, the mice were fed with high-fat diet to induce non-alcoholic fatty liver, and the mice weighing more than (>) 38 g were selected and continuously fed with high-fat diet, accompanied by the intraperitoneal injection of 25% CCl4 ([…], twice a week, for a total of four weeks). The day of starting CCl4 administration was set as day 0, and the time of starting CCl4 administration was set as hour 0. On the day of starting CCl4 administration, the administration by gavage was started, and the administration volume of each group was 5 mL/kg, once a day for 4 weeks (28 days). The injection time of CCl4 should be more than 4 hours apart from the first administration time point of the day. […]

| SMILES | Change of the crystal form (XRPD) after placement [1] | IC50 [2] [µM] | bioavailability ([3]; po, gavage 10 mg/kg vs IV 2.0 mg/kg, read-out: Bioavailability F) [%] | clearance ([3]; IV 2.0 mg/kg and gavage 10 mg/kg study, route per parameter not given, read-out: Clearance rate) [mL/min/kg] | AUC ([3]; IV 2.0 mg/kg and gavage 10 mg/kg study, route per parameter not given, read-out: Concentration integral AUC) [µM·h] | half-life ([3]; IV 2.0 mg/kg and gavage 10 mg/kg study, route per parameter not given, read-out: Half-life T1/2 (converted)) [h] | IC50 [4] [µM] | Efficacy on NAS versus reference compound [5] | Efficacy on fibrosis versus reference compound [5] |
| --- | --- | --- | --- | --- | --- | --- | --- | --- | --- |
| COc1ccccc1[C@H](Cn1nc(C(C)(C)C(=O)O)c(=O)c2c(C)c(-c3ncco3)sc21)OC1CCOCC1 [crystal form A] | remains unchanged under all stability conditions | – | – | – | – | – | – | – | – |
| COc1ccccc1[C@H](Cn1nc(C(C)(C)C(=O)O)c(=O)c2c(C)c(-c3ncco3)sc21)OC1CCOCC1 [Compound of formula (I)] | – | 0.0103 | 66.7 | 27.3 | 7.21 | 1.85 | 0.0141 | achieves the same efficacy as the reference compound at a higher dose | achieves the same efficacy as the reference compound at a higher dose |
